Assay results taken from patent US7267953B2, “Method for identification of modulators of pre-adipocyte differentiation” (AstraZeneca AB, priority 2001, dated 2007).

What was measured:
[1] = system: NIH/3T3 mouse fibroblasts; assay: Adipocyte differentiation of retrovirus infected NIH/3T3 fibroblasts, Oil Red O staining; type: cell-based; settings: Oil Red O after 10 days
Text: A classical way of studying the adipocyte differentiating potential of a gene is to overexpress it in either uncommitted NIH/3T3 fibroblasts or in 3T3-L1 preadipocytes using retroviral transfer. The adipocyte differentiating potential can then be assayed by microscopic examination and by staining with lipophilic dyes such as Oil Red O. O/E-1 was thus expressed in mouse NIH/3T3 fibroblasts, 3T3-L1 preadipocytes and mouse embryonic fibroblasts to investigate its adipocyte differentiating potential. cDNAs encoding mouse O/E-1, human O/E-1 and mouse PPARγ2 were cloned in the pBabepuro retrovirus vector. These retrovirus vectors as well as the empty vector were transiently transfected into Phoenix high efficiency packaging cells. Retroviruses containing supernatants were used to infect NIH/3T3 mouse fibroblasts. After puromycin (2 μg/ml) selection for two days, cells were allowed to grow to confluence after which adipogenic inducers were added (DIM, see above), after 10 days cells were stained with the lipophilic dye Oil Red O. As expected PPARγ induced some differentiation of NIH/3T3 mouse fibroblasts into lipid-containing cells that resembled cultured adipocytes in the presence of adipogenic inducers (FIG. 3). […] The ability of human O/E-1 to induce adipocyte differentiation of NIH/3T3 was also tested and found to be similar as that of mouse O/E-1 (Data not shown).

[2] = system: 3T3-L1 preadipocytes; assay: Adipocyte differentiation of retrovirus infected 3T3-L1 preadipocytes, Oil Red O staining; type: cell-based, mouse; settings: vector or O/E-1 infected 3T3-L1; 0.5 μM in combination with dexamethasone (1 μM); stained at day 3, 4 and 7
Text: The fibroblastic 3T3-L1 preadipocyte cells have the capability to differentiate to adipocytes when given the proper hormonal stimulation, usually a combination of dexamethasone, insulin and isobutylmethylxanthine, as opposed to NIH/3T3 where overexpression of adipocyte differentiating factors is necessary to get adipocyte development. Untransformed mouse embryonic fibroblasts (MEF) can also be forced to adipocyte differentiation using the same adipogenic factors; the efficiency is however much lower than with 3T3-L1. […] Stable clones were selected 2-3 days using puromycin (2 μg/ml) and surviving cells were grown to confluence. 3T3-L1 cells differentiate to adipocytes at high rate when all adipogenic inducers are present and this could make it difficult discriminate the effect of an additional adipogenic signal. The cells were therefore induced with dexamethasone (1 μM) alone for two days or in combination with darglitazone (0.5 μM) throughout the experiment to get a low differentiation rate. MEF on the other hand develop into adipocytes quite inefficiently and were thus induced with the more powerful adipogenic combination of dexamethasone (1 μM), insulin (5 μg/ml) isobutylmethylxanthine (0.115 mg/ml) and darglitazone (0.5 μM) for two days, insulin and darglitazone for two days and darglitazone alone all through the experiment. […]

[3] = system: mouse embryonic fibroblasts (MEF); assay: Adipocyte differentiation of retrovirus infected mouse embryonic fibroblasts (MEF), Oil Red O staining; type: cell-based; settings: Oil Red O at day 13 post-induction
Text: The fibroblastic 3T3-L1 preadipocyte cells have the capability to differentiate to adipocytes when given the proper hormonal stimulation, usually a combination of dexamethasone, insulin and isobutylmethylxanthine, as opposed to NIH/3T3 where overexpression of adipocyte differentiating factors is necessary to get adipocyte development. Untransformed mouse embryonic fibroblasts (MEF) can also be forced to adipocyte differentiation using the same adipogenic factors; the efficiency is however much lower than with 3T3-L1. […] Stable clones were selected 2-3 days using puromycin (2 μg/ml) and surviving cells were grown to confluence. 3T3-L1 cells differentiate to adipocytes at high rate when all adipogenic inducers are present and this could make it difficult discriminate the effect of an additional adipogenic signal. The cells were therefore induced with dexamethasone (1 μM) alone for two days or in combination with darglitazone (0.5 μM) throughout the experiment to get a low differentiation rate. […] At day 13 post-induction adipate differentiation was measured by Oil Red O staining. […]

Cc1oc(-c2ccccc2)nc1CCC(=O)c1ccc(CC2SC(=O)NC2=O)cc1 (stereo not drawn) [darglitazone]
differentiation into lipid-containing adipocyte-like cells ([1]; PPARγ2 infected NIH/3T3, 0.5 μM present throughout with adipogenic inducers (DIM)): dramatic increase | development to adipocytes ([1]; mouse O/E-1 infected NIH/3T3, adipogenic inducers (DIM), 0.5 μM): greatly enhanced | differentiation into adipocytes ([1]; vector infected NIH/3T3, adipogenic inducers (DIM), 0.5 μM): No differentiation was observed | overall rate of adipocyte differentiation [2]: overall rate of differentiation was enhanced | adipocyte differentiation ([3]; human O/E-1 infected MEF): even further enhanced differentiation | number of cells that developed into adipocytes ([3]; vector infected MEF, compared with vehicle): increased the number of cells that developed into adipocytes
